Values joined by “and” are separate entries in the source; they are usually repeats but may differ in a detail not shown here. Equal values may be shown once.
How the values were obtained:
CYP2E1 = target: T1, CYP2E1 (Homo sapiens, UniProt P05181); assay: Tenatoprazole oxidation by recombinant CYP2E1; type: in vitro ADME; details: substrate tenatoprazole 0.10 mM, 0.20 μM CYP2E1; no apparent formation
T1 construct: made in house; host or cells: Escherichia coli (membrane fractions)
Description: (§1) Pooled liver microsomes from human samples were obtained from ThermoFisher Scientific (Waltham, MA, USA). Recombinant human P450s were heterologously expressed in Escherichia coli with a pCW vector containing human P450 cDNA (CYP 3A4, 2C9, 2C19, 1A2, 1B1, 2E1, 2D6, and 2A6) and rat NADPH-P450 reductase (CPR). Membrane fractions expressing both P450 and CPR of E. coli were prepared as described previously and were used for the catalytic activity assays.
(§2) The reaction mixture included 0.20 μM P450, 0.40 μM CPR, and tenatoprazole (0.10 mM) in 0.25 mL of 0.10 M potassium phosphate buffer (pH 7.4). The reaction was started by adding NGS and the incubation was continued for the indicated time at 37 °C. Incubation was then stopped by adding ice-chilled ethyl acetate (0.50 mL) and omeprazole (IS) was added to a final concentration of 20 μM. The mixtures were vortexed for 2 min, centrifuged at 1000× g for 20 min, and then the organic layer was taken for drying under nitrogen gas stream. The residues were dissolved in 180 μL of HPLC mobile phase and 30 μL was injected onto a Gemini C18 column (4.6 × 150 mm, 5 μm; Phenomenex, Torrance, CA, USA). The products formed were analyzed by HPLC at A302. The HPLC profile of the authentic chemicals (i.e., tenatoprazole, tenatoprazole sulfide, and their metabolites) were used to identify the major metabolites of tenatoprazole and tenatoprazole sulfide produced by the recombinant P450s.
(§3) Figure S6. HPLC analyses of the products derived from the oxidation of tenatoprazole catalyzed by recombinant human P450s. The reaction mixture included 0.20 μM P450, 0.40 μM CPR, and 0.10 mM tenatoprazole in 0.25 mL of potassium phosphate buffer (0.10 M, pH 7.4). The reaction was started by adding an NGS at 37 °C for 60 min. (A) CYP1A2; (B) CYP1B1; (C) CYP2A6; (D) CYP2C9; (E) CYP2D6; (F) CYP2E1. The arrows with solid and broken lines indicate the retention times of 5’-OH tenatoprazole (6.6 min) and 5’-OH tenatoprazole sulfide (8.4 min), respectively.
(§4) (1 picture or pasted object on this page, not shown here)

CYP2C9 = target: T2, CYP2C9 (Homo sapiens, UniProt P11712); assay: Tenatoprazole oxidation by recombinant CYP2C9; type: in vitro ADME; details: substrate tenatoprazole 0.10 mM, 0.20 μM CYP2C9
T2 construct: made in house; host or cells: Escherichia coli (membrane fractions)
T2 sequence (P11712 whole entry): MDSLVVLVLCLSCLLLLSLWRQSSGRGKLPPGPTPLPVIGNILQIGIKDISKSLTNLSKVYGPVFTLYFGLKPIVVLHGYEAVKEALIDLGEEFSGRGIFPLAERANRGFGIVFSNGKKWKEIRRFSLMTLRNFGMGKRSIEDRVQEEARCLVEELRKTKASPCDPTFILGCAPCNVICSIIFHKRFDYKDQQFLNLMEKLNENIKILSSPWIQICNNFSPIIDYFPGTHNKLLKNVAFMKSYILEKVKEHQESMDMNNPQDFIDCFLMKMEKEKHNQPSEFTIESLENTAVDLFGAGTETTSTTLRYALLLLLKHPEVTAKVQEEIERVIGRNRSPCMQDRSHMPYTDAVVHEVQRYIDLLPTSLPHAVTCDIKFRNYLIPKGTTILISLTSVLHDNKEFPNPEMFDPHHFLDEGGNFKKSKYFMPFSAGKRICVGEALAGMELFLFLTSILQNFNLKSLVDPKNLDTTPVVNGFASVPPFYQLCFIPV
Description: as §1
as §2, with “The HPLC profile of the authentic chemicals (i.e., tenatoprazole, tenatoprazole sulfide, and their metabolites) were used to identify the major metabolites of tenatoprazole and tenatoprazole sulfide produced by the recombinant P450s.” left out

CYP2D6 = target: T3, CYP2D6 (Homo sapiens, UniProt P10635); assay: Tenatoprazole oxidation by recombinant CYP2D6; type: in vitro ADME; details: substrate tenatoprazole 0.10 mM, 0.20 μM CYP2D6
T3 construct: made in house; host or cells: Escherichia coli (membrane fractions)
T3 sequence (P10635 whole entry): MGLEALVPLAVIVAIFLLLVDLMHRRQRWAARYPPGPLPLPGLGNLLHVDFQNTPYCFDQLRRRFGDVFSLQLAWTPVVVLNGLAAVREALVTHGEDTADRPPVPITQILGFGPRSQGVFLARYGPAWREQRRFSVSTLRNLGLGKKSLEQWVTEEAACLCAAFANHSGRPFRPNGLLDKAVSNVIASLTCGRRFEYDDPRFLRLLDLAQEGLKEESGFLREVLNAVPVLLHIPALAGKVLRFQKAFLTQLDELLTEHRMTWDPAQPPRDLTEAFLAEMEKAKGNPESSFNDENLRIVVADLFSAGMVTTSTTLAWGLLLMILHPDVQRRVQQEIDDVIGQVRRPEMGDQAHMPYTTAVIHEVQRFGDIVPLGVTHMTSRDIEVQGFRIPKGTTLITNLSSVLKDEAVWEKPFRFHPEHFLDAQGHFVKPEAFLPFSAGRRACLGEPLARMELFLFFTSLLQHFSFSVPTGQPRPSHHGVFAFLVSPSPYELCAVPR
Description: as §1
as §2, with “The HPLC profile of the authentic chemicals (i.e., tenatoprazole, tenatoprazole sulfide, and their metabolites) were used to identify the major metabolites of tenatoprazole and tenatoprazole sulfide produced by the recombinant P450s.” left out

CYP1A2 = target: T4, CYP1A2 (Homo sapiens, UniProt P05177); assay: Tenatoprazole oxidation by recombinant CYP1A2; type: in vitro ADME; details: substrate tenatoprazole 0.10 mM, 0.20 μM CYP1A2; no apparent formation
T4 construct: made in house; host or cells: Escherichia coli (membrane fractions)
T4 sequence (P05177 1-516): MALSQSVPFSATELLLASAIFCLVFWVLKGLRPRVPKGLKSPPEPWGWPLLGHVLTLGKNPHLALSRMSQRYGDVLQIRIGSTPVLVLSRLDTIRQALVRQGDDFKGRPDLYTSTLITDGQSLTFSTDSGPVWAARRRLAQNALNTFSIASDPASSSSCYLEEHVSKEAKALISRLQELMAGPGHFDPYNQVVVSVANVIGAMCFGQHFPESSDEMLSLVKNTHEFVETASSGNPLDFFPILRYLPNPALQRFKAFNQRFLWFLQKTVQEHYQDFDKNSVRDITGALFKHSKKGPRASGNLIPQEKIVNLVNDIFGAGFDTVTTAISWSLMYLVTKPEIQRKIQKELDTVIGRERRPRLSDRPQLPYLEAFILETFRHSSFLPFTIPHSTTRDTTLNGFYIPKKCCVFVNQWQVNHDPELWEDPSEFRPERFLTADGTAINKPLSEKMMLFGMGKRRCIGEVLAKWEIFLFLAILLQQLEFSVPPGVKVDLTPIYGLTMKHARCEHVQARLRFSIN
Description: as §1, §2, §3, §4

human CYP2C19 [1] = target: T5, human CYP2C19 (Homo sapiens, UniProt P33261); assay: Steady-state kinetics of tenatoprazole oxidation by recombinant CYP2C19; type: in vitro ADME
T5 construct: made in house; host or cells: Escherichia coli (membrane fractions)
T5 sequence (P33261 whole entry): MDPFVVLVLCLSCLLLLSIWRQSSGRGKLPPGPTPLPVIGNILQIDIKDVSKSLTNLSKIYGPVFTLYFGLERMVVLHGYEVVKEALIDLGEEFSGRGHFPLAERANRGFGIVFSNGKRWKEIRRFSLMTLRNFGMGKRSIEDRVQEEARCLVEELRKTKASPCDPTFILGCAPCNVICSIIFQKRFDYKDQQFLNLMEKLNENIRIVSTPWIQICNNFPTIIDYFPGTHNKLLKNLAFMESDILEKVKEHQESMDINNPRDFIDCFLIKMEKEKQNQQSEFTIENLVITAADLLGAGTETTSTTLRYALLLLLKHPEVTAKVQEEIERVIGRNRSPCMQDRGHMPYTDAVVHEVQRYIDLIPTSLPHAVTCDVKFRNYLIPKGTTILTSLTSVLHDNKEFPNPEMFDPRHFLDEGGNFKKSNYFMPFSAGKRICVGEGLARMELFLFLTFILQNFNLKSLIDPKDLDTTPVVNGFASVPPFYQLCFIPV
Description: Pooled liver microsomes from human samples were obtained from ThermoFisher Scientific (Waltham, MA, USA). […] Membrane fractions expressing both P450 and CPR of E. coli were prepared as described previously and were used for the catalytic activity assays. […] The reaction was started by adding NGS and the incubation was continued for the indicated time at 37 °C. Incubation was then stopped by adding ice-chilled ethyl acetate (0.50 mL) and omeprazole (IS) was added to a final concentration of 20 μM. […] Phenomenex, Torrance, CA, USA). The products formed were analyzed by HPLC at […]. […] The kinetic parameters (kcat and Km) were determined by using a Michaelis-Menten nonlinear regression analysis with GraphPad Prism (GraphPad Software, San Diego, CA, USA).

CYP2A6 = target: T6, CYP2A6 (Homo sapiens, UniProt P11509); assay: Tenatoprazole oxidation by recombinant CYP2A6; type: in vitro ADME; details: substrate tenatoprazole 0.10 mM, 0.20 μM CYP2A6; no apparent formation
T6 construct: made in house; host or cells: Escherichia coli (membrane fractions)
T6 sequence (P11509 1-494): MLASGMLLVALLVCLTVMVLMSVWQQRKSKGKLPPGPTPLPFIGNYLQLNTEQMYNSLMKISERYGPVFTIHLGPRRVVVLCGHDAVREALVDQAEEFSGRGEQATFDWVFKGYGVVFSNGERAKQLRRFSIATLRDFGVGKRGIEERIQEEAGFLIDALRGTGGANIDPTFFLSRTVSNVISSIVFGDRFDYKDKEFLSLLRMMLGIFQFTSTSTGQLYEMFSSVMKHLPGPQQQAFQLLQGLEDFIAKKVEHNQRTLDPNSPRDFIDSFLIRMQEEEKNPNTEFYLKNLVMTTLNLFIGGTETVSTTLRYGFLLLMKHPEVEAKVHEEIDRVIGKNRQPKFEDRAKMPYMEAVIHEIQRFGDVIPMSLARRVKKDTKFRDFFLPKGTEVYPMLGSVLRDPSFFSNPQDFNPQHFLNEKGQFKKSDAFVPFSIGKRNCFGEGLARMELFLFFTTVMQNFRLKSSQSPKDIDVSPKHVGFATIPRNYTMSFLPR
Description: as §1, §2, §3, §4

CYP1B1 = target: T7, CYP1B1 (Homo sapiens, UniProt Q16678); assay: Tenatoprazole oxidation by recombinant CYP1B1; type: in vitro ADME; details: substrate tenatoprazole 0.10 mM, 0.20 μM CYP1B1; no apparent formation
T7 construct: made in house; host or cells: Escherichia coli (membrane fractions)
T7 sequence (Q16678 1-543): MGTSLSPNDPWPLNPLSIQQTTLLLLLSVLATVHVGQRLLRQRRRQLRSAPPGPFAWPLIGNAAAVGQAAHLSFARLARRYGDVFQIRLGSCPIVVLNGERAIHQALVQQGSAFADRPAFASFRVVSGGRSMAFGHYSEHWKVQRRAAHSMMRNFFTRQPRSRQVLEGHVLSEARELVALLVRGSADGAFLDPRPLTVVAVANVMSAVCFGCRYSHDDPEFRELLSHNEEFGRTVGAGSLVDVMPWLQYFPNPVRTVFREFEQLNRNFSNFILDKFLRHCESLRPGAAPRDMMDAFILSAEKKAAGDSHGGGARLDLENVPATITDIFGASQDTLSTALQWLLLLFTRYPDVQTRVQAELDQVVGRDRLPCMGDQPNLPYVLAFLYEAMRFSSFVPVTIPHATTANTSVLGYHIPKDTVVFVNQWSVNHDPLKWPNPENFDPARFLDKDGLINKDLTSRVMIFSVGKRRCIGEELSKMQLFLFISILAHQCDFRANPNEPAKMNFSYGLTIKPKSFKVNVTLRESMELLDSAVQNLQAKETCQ
Description: as §1, §2, §3, §4

human CYP3A4 = target: T8, human CYP3A4 (Homo sapiens, UniProt P08684); assay: Sulfoxidation of tenatoprazole sulfide by recombinant CYP3A4 (chiral chromatography); type: in vitro ADME; details: substrate tenatoprazole sulfide, recombinant CYP3A4, chiral chromatography; label = product formed
T8 construct: made in house; host or cells: Escherichia coli (membrane fractions)
T8 sequence (P08684 whole entry): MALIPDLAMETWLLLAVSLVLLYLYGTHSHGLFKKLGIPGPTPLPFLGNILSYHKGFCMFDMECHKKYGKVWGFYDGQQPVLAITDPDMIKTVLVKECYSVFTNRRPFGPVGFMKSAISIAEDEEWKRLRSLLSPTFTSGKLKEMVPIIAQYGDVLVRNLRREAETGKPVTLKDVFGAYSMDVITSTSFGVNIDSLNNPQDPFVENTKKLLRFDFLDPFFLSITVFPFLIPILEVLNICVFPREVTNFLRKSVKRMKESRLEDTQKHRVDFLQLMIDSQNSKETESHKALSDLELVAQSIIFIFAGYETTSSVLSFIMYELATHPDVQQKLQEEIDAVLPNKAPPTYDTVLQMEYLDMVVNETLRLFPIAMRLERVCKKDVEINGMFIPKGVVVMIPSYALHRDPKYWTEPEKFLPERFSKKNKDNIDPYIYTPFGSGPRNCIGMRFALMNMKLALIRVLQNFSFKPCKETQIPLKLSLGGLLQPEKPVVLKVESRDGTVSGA
Description: The sulfoxidation reaction of tenatoprazole sulfide by CYP3A4 was measured by chiral chromatography. […] The reaction was initiated by adding NGS at 37 °C. […] After the residues were solubilized in 180 μL mobile phase, 30 μL samples were injected onto a Chiralpak AD column (4.6 × 150 mm, 10 μm; Daicel Corporation, Osaka, Japan) with a hexane-ethanol mixture (30:70, v/v) as the mobile phase. The products formed were analyzed by HPLC at […]. […] The kinetic parameters (kcat and Km) were determined by using a Michaelis-Menten nonlinear regression analysis with GraphPad Prism (GraphPad Software, San Diego, CA, USA).

human CYP2C19 [2] = target: T5, human CYP2C19; design: method as in earlier work; details: in vitro; cited from earlier work
[3] = design: method as in PMID 27640009; details: neutral pH; cited from earlier work
[4] = design: method as in PMID 23205582; details: compared with other PPIs such as lansoprazole and omeprazole; cited from earlier work
[5] = system: human liver microsomes (HLMs); assay: Time course of oxidation of tenatoprazole and tenatoprazole sulfide by human liver microsomes (HPLC); type: in vitro ADME; details: for tenatoprazole remained: substrate tenatoprazole 500 μM
Description: A racemate of tenatoprazole was used in this work because the chiral tenatoprazoles currently are not commercially available. The reactions using HLMs contained incubation at 37 °C in 0.25 mL mixtures containing P450 (0.5 mg protein/mL) in 100 mM potassium phosphate buffer (pH 7.4), an NADPH-generating system (NGS, final concentration of 10 mM glucose-6-phosphate, 0.50 mM NADP^+, 1.0 IU yeast glucose-6-phosphate dehydrogenase per mL), and 0.1 mM of tenatoprazole or tenatoprazole sulfide. Incubations generally were performed for 2 h in the presence or absence of the NGS. Tenatoprazole and its metabolites were extracted twice using cold ethyl acetate as an organic solvent. Then centrifugation (1000× g, 20 min) was done to separate the organic layer from the aqueous layer. Omeprazole was added to this solution as an internal standard (IS) at a final 20 μM concentration. The organic layer was concentrated under nitrogen gas stream. The dried residues were then dissolved in the mobile phase (180 μL) and 30 μL was injected onto the column.
High-performance liquid chromatography (HPLC) was performed on the basis of a previously developed method for tenatoprazole and its metabolites, as described elsewhere. The analytical column was a Gemini C18 column (4.6 × 150 mm, 5 μm; Phenomenex), and the HPLC mobile phase consisted of acetonitrile and 5 mM potassium phosphate buffer (pH 7.3) (25:75, v/v). The substrate and its metabolites were detected at A302. The HPLC profile of the authentic compounds (i.e., tenatoprazole and its metabolites) were measured to compare to identify the major metabolites of tenatoprazole and tenatoprazole sulfide produced by HLMs.
The time course of the oxidation of tenatoprazole and tenatoprazole sulfide by HLMs (0.5 mg protein/mL) was analyzed to the estimated yield of metabolites and percentage of each metabolite using 0.60 mM substrate in 0.25 mL of 0.10 M potassium phosphate buffer (pH 7.4). After NGS was added to initiate the reaction, the samples were incubated for the designated time (i.e., 2, 5, 10, and 30 min, and 1, 2, 4, 8, 12, and 24 h) at 37 °C. Product formation was quantified using HPLC analysis, as mentioned above.
Calibration standard curves of tenatoprazole were made using a blank control sample (a reaction mixture without substrate and IS) and 12 samples containing tenatoprazole and omeprazole (IS) covering the concentration ranges of 1–500 μM, as described previously. The peak area ratio of tenatoprazole to IS was linear with respect to the analyte concentration over the range of 1–500 μM. The metabolites were quantified by comparing the peak areas of each metabolite to the mean peak areas of the IS (20 μM omeprazole).

T1 sequence (P05181 whole entry): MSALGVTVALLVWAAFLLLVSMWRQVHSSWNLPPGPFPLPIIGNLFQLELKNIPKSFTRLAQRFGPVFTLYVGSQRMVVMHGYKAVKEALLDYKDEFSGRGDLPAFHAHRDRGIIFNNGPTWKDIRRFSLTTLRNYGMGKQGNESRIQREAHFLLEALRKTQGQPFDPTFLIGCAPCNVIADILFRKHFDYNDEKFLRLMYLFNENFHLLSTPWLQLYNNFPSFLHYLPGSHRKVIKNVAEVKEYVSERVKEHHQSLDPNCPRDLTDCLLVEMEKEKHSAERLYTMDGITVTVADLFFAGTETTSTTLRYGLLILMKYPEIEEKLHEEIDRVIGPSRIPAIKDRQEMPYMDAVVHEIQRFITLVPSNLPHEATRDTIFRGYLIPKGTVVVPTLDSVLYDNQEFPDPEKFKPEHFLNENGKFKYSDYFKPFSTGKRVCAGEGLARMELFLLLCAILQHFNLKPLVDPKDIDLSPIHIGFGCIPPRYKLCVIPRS

## COc1ccc2[nH]c(SCc3ncc(CO)c(OC)c3C)nc2n1 [5′-OH tenatoprazole sulfide]
CYP2E1
  formation rate of metabolite: < 0.05 nmol product/min/nmol P450
CYP2C9
  formation rate of metabolite: 0.1 min⁻¹
CYP2D6
  formation rate of metabolite: 0.3 min⁻¹
CYP1A2
  formation rate of metabolite: < 0.05 nmol product/min/nmol P450
Human CYP2C19 [1]; substrate tenatoprazole (1–500 μM), recombinant CYP2C19 0.20 μM, 37 °C, 5 min, label = product formed
  kcat of product formation: 0.0333 s⁻¹ and 0.0333 ± 0.0017 s⁻¹
CYP2A6
  formation rate of metabolite: < 0.05 nmol product/min/nmol P450
CYP1B1
  formation rate of metabolite: < 0.05 nmol product/min/nmol P450

## COc1ccc2[nH]c([S@@+]([O-])Cc3ncc(C)c(OC)c3C)nc2n1 [S-tenatoprazole]
Human CYP3A4
  kcat of product formation: 0.045 s⁻¹ and 0.045 ± 0.0033 s⁻¹
Human CYP2C19 [2]
  rate of metabolism of S-isomer relative to R-isomer: around seven times more slowly

## COc1ccc2[nH]c([S+]([O-])Cc3ncc(C)c(OC)c3C)nc2c1 (stereo not drawn) [omeprazole, Omeprazole]
[3]
  spontaneous or nonenzymatic degradation to omeprazole sulfide: not spontaneously or nonenzymatically degraded

## COc1ccc2[nH]c([S+]([O-])Cc3ncc(C)c(OC)c3C)nc2n1 (stereo not drawn) [tenatoprazole, Tenatoprazole]
Human CYP2C19 [1]; recombinant CYP2C19, substrate tenatoprazole
  sulfoxidation of tenatoprazole by CYP2C19: did not catalyze
[4]
  plasma half-life, times longer than those of other PPI drugs: ~7 times
[5]; HLM reaction mixture without NADPH, after 12 h
  tenatoprazole remained: 4.4%
[5]; HLMs, presence of NADPH, 12 h of incubation, 37 °C
  tenatoprazole remained: 1.0%
[5]; substrate tenatoprazole sulfide 500 μM, HLMs, presence of NADPH, after 12 h
  product formed from tenatoprazole sulfide (% of substrate): 0.49%
